The subject of assay [1] is COV504 cells. Briefly: Inhibition of cell proliferation, CyQUANT Direct, COV504. The format is cell-based. Conditions: Homo sapiens; COV504 ovarian cancer cells, 72-hour; read-out: COV 504 proliferation calculated IC50. As to the method: (§1) HCC70 and MB453 cells are cell lines derived from human triple negative breast cancer. COV318 and COV504 cells are cell lines derived from human ovarian cancer. Representative compounds of the invention were tested at different concentrations (from 4 μM to 126.4 pM; 0.5 log serial dilutions) for their ability to inhibit the proliferation of each of these cell lines. Known CDK inhibitors dinaciclib or N-((1S,3R)-3-((5-chloro-4-(1H-indol-3-yl) pyrimidin-2-yl)amino)cyclohexyl)-5-((E)-4-(dimethylamino)but-2-enamido)picolinamide and triptolide were used as positive controls. Cells were seeded at approximately 2,000 cells/well and grown in ATCC-formulated RPMI-1640 Medium (ATCC 30-2001)+10% FBS. The cells were cultured at 37° C. in a humidified chamber in the presence of 5% CO2. Proliferation assays were conducted over a 72-hour time period. CyQUANT® Direct Cell Proliferation Assay (Life Technologies, Chicago, IL USA) was used to assess the anti-proliferative effects of the compounds following manufacturer's directions and utilizing the reagents supplied with the CyQUANT® Direct Cell kit.

The target in assay [2] is CDK9/Cyclin T1 complex (Homo sapiens, UniProt P50750). Briefly: CDK9 kinase inhibition assay (Caliper/LabChip EZ Reader).
Protocol: (§2) Compounds of the invention were assayed for inhibition of CDK7, CDK9, CDK12, and CDK2 activity at Biortus Biosciences (Jiangyin, Jiangsu Province, P.R. of China) using kinase assays for each CDK developed with a Caliper/LabChip EZ Reader (Perkin Elmer, Waltham, MA).
(§3) Furthermore, the CDK9 inhibition assay used CDK9/Cyclin T1 complex (8 nM) and “5-FAM-CDK9tide” peptide substrate (2 μM, synthesized fluorophore-labeled peptide with the following sequence: 5-FAM-GSRTPMY-NH2 (SEQ ID NO:2) where 5-FAM is defined above and NH2 signifies a C-terminal amide) with 10 mM MgCl2 in the buffer composition listed above. The CDK12 inhibition assay used CDK12 (aa686-1082)/Cyclin K complex (50 nM) and “5-FAM-CDK9tide” (2 μM) as defined above, with 2 mM MgCl2 in the buffer composition above. Additionally, the CDK2 inhibition assay used CDK2/Cyclin E1 complex (0.5 nM) and “5-FAM-CDK7tide” (2 μM) as defined above, with 2 mM MgCl2 in the buffer composition listed above.
(§4) The incubation period at 27° C. for each CDK inhibition assay was chosen such that the fraction of phosphorylated peptide product produced in each assay, relative to the total peptide concentration, was approximately 20% (±5%) for the uninhibited kinase (35 min. for CDK7, 35 min. for CDK2, 3 hr. for CDK12, 15 min. for CDK9).
Assay [3] addresses CDK2/Cyclin E1 complex (Homo sapiens, UniProt P24941). The assay can be described thus: CDK2 kinase inhibition assay (Caliper/LabChip EZ Reader).
Protocol: as §2, §3, §4
The target in assay [4] is CDK12 (aa686-1082)/Cyclin K complex (Homo sapiens, UniProt Q9NYV4). The assay can be described thus: CDK12 kinase inhibition assay (Caliper/LabChip EZ Reader).
Assay [5] concerns MB453 cells. Briefly: Inhibition of cell proliferation, CyQUANT Direct, MB453. The format is cell-based, human. The note with it: Homo sapiens; MB453 triple negative breast cancer cells, 72-hour; read-out: MB 453 proliferation calculated IC50. The procedure:
as §1

For assay [6], the system named is HCC70 cells. The assay can be described thus: Inhibition of cell proliferation, CyQUANT Direct, HCC70. The format is cell-based, human. Conditions: Homo sapiens; HCC70 triple negative breast cancer cells, 72-hour; read-out: HCC 70 proliferation calculated IC50. The procedure: as §1
For assay [7], the system named is COV318 cells. Briefly: Inhibition of cell proliferation, CyQUANT Direct, COV318. Conditions: Homo sapiens; COV318 ovarian cancer cells, 72-hour; read-out: COV 318 proliferation calculated IC50. The format is cell-based. As to the method:
as §1

Assay [8] addresses CDK7/Cyclin H/MAT1 complex (Homo sapiens, UniProt P50613). Briefly: CDK7 kinase inhibition assay (Caliper/LabChip EZ Reader).

CDK12 (aa686-1082)/Cyclin K complex, sequence (Q9NYV4 686-1082): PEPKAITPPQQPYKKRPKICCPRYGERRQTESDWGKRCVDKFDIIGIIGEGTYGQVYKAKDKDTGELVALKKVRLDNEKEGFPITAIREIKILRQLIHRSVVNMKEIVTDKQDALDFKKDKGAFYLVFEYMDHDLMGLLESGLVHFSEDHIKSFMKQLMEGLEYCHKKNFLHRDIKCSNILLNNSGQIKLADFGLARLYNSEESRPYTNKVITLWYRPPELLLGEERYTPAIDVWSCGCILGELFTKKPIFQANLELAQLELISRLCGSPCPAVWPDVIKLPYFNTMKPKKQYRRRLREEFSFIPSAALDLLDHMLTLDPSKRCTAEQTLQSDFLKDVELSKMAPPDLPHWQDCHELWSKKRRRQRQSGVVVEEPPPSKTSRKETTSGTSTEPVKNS
CDK12 (aa686-1082)/Cyclin K complex, sequence (O75909 whole entry partner, the tested form may be a part): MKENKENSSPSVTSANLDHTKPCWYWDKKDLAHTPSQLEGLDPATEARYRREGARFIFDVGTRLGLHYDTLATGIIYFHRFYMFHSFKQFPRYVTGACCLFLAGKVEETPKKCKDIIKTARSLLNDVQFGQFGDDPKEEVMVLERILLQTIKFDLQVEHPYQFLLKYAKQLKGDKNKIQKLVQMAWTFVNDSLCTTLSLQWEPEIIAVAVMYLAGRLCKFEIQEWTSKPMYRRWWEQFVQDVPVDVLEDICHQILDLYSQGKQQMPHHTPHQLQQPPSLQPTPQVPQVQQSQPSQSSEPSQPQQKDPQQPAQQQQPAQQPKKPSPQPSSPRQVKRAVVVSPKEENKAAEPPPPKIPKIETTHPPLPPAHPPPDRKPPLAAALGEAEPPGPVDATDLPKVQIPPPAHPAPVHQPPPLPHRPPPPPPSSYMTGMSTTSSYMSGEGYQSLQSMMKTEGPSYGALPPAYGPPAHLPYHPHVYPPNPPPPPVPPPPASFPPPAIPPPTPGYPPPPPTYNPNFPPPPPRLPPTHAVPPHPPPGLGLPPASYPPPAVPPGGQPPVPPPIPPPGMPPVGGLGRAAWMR
CDK9/Cyclin T1 complex, sequence (P50750 whole entry): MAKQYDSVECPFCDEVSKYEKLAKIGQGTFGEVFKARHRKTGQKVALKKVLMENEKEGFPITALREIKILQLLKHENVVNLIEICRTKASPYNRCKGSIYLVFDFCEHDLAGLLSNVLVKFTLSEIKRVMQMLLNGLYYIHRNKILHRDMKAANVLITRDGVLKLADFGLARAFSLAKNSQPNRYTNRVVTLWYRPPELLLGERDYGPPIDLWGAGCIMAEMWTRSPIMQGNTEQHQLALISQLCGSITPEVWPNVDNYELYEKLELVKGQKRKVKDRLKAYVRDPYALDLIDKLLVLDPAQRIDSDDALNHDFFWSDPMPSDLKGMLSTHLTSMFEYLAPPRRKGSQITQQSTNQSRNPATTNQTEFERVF
CDK9/Cyclin T1 complex, sequence (O60563 whole entry partner): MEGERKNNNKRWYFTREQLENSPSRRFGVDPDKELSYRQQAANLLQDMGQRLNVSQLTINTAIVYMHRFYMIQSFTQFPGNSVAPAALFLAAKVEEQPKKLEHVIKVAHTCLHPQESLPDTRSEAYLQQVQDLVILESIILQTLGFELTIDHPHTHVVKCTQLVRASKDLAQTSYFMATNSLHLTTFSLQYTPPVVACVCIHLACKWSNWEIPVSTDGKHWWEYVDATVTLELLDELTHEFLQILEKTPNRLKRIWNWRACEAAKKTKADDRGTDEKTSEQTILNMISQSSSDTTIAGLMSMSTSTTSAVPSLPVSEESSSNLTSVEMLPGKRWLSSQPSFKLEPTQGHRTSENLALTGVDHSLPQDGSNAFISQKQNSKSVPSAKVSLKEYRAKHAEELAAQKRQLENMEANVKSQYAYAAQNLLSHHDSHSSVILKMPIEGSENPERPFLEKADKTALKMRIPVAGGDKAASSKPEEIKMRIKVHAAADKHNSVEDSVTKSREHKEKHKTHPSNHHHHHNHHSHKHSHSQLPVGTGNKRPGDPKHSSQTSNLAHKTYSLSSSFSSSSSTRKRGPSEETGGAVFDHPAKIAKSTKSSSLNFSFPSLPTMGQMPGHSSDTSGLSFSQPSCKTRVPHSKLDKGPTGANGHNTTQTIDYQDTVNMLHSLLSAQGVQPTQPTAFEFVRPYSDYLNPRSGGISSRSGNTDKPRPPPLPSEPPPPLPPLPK
CDK7/Cyclin H/MAT1 complex, sequence (P50613 whole entry): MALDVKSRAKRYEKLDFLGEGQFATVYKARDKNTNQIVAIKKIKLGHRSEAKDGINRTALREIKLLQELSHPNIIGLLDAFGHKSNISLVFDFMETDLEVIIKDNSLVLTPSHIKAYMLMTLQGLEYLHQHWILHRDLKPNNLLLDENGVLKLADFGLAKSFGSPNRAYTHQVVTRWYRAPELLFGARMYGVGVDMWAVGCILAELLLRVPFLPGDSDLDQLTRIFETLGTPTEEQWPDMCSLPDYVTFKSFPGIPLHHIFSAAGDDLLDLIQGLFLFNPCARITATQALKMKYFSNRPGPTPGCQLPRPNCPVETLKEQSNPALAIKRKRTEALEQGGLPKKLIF
CDK7/Cyclin H/MAT1 complex, sequence (P51946 whole entry partner): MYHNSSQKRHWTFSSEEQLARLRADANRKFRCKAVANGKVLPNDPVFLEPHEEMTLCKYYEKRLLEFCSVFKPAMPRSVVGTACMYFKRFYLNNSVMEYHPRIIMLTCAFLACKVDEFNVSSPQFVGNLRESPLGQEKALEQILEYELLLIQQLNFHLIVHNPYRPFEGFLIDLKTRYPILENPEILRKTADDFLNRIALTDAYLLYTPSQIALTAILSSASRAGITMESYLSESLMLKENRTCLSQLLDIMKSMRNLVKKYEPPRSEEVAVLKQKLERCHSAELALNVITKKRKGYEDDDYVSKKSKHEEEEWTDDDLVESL
CDK7/Cyclin H/MAT1 complex, sequence (P51948 whole entry partner): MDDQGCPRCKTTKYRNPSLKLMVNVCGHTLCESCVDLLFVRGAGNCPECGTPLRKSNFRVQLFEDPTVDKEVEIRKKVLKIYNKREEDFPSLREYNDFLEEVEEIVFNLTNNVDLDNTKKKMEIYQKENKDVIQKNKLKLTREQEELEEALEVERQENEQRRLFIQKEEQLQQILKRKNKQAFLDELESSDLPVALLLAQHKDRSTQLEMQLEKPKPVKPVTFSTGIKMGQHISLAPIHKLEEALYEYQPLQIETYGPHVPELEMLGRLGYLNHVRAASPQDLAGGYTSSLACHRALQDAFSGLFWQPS

For the compound `CN(C)[C@H]1CC[C@@H]1Nc1ncc(C(F)(F)F)c(-c2c[nH]c3cc(C#N)ccc23)n1` [Compound 126, 3-[2-[[(1S,2S)-2-(dimethylamino)cyclobutyl]-amino]-5-(trifluoromethyl)pyrimidin-4-yl]-1H-indole-6-carbonitrile], the IC50 in assay [1] is 100 to 500 nM; in assay [2], more than 500 nM; in assay [3], more than 500 nM; in assay [4], more than 500 nM; in assay [5] it was 100 to 500 nM; in assay [6], more than 2000 nM. The IC50 in assay [7] is more than 2000 nM; in assay [8], 30 to 100 nM.
With `Cc1noc(C)c1-c1ccc2c(-c3nc(NC4CCCC4N)ncc3C(F)(F)F)c[nH]c2n1` (stereo not drawn) [Compound 127], the IC50 in assay [1] was less than 100 nM; in assay [2], more than 500 nM; in assay [3] it was more than 500 nM; in assay [4], more than 500 nM; in assay [5], less than 100 nM; in assay [6] it was less than 100 nM. Further, the IC50 was 100 to 500 nM in assay [7] and less than 30 nM in assay [8].
With `CCN[C@H]1CCC[C@@H]1Nc1ncc(C(F)(F)F)c(-c2c[nH]c3cc(C#N)ccc23)n1` [Compound 128, 3-[2-[[(1S,2S)-2-(ethylamino)cyclopentyl]-amino]-5-(trifluoromethyl)pyrimidin-4-yl]-1H-indole-6-carbonitrile], the IC50 in assay [1] was less than 100 nM; in assay [2], more than 500 nM; in assay [3] it was more than 500 nM; in assay [4], more than 500 nM; in assay [5] it was less than 100 nM; in assay [6], less than 100 nM. Further, the IC50 in assay [7] was 100 to 500 nM; in assay [8] it was less than 30 nM.
`Cc1noc(C)c1-c1ccc2c(-c3nc(N[C@H]4CC[C@@H]4N)ncc3C(F)(F)F)c[nH]c2n1` [Compound 129, (1S,2S)—N2-[4-[6-(3,5-dimethylisoxazol-4-yl)-1H-pyrrolo[2,3-b]pyridin-3-yl]-5-(trifluoromethyl)pyrimidin-2-yl]-cyclobutane-1,2-diamine]: the IC50 in assay [1] was less than 100 nM; in assay [2] it was more than 500 nM; in assay [3], more than 500 nM; in assay [4], more than 500 nM; in assay [5], less than 100 nM; in assay [6], 100 to 500 nM. The values for the IC50 in assay [7] and in assay [8] were 100 to 500 nM and less than 30 nM, respectively.
As to `N#Cc1ccc2c(-c3nc(N[C@H]4CC[C@@H]4N4CCOCC4)ncc3C(F)(F)F)c[nH]c2c1` [Compound 130], the IC50 was more than 2000 nM in assay [1]; more than 500 nM in assay [2]; more than 500 nM in assay [3]; more than 500 nM in assay [4]; more than 2000 nM in assay [5]; more than 2000 nM in assay [6]. The IC50 in assay [7] is more than 2000 nM; in assay [8], 100 to 500 nM.
Consider `CCN[C@H]1CC[C@@H]1Nc1ncc(C(F)(F)F)c(-c2c[nH]c3cc(C#N)ccc23)n1` [Compound 131, 3-[2-[[(1S,2S)-2-(ethylamino)cyclobutyl]-amino]-5-(trifluoromethyl)pyrimidin-4-yl]-1H-indole-6-carbonitrile], for which the IC50 was 100 to 500 nM in assay [1]; more than 500 nM in assay [2]; more than 500 nM in assay [3]; more than 500 nM in assay [4]; 100 to 500 nM in assay [5]; 500 to 2000 nM in assay [6]. Also, the IC50 was 500 to 2000 nM in assay [7] and less than 30 nM in assay [8].
For `N#Cc1ccc2c(-c3nc(N[C@@H]4CC[C@H]4N4CCOCC4)ncc3C(F)(F)F)c[nH]c2c1` [Compound 132], the IC50 in assay [1] is more than 2000 nM; in assay [2] it was more than 500 nM; in assay [3], more than 500 nM; in assay [4] it was more than 500 nM; in assay [5], more than 2000 nM; in assay [6], more than 2000 nM. Moreover, the IC50 is more than 2000 nM in assay [7] and more than 500 nM in assay [8].
As for `COCCN[C@H]1CC[C@@H]1Nc1ncc(C(F)(F)F)c(-c2c[nH]c3cc(C#N)ccc23)n1` [Compound 133], the IC50 in assay [1] is 500 to 2000 nM; in assay [2], more than 500 nM; in assay [3], more than 500 nM; in assay [4], more than 500 nM; in assay [5], 500 to 2000 nM; in assay [6], 500 to 2000 nM. For the same compound, the IC50 in assay [7] is 500 to 2000 nM; in assay [8] it was 30 to 100 nM.
Turning to `N#Cc1ccc2c(-c3nc(N[C@H]4CC[C@@H]4N4CCCC4)ncc3C(F)(F)F)c[nH]c2c1` [Compound 135, 3-[2-[[(1S,2S)-2-pyrrolidin-1-ylcyclobutyl]-amino]-5-(trifluoromethyl)pyrimidin-4-yl]-1H-indole-6-carbonitrile], the IC50 in assay [1] is 500 to 2000 nM; in assay [2], more than 500 nM; in assay [3], more than 500 nM; in assay [4], more than 500 nM; in assay [5], 100 to 500 nM; in assay [6], more than 2000 nM. The IC50 in assay [7] was more than 2000 nM; in assay [8] it was less than 30 nM.
As for `Cc1noc(C)c1-c1ccc2c(-c3nc(N[C@@H]4C[C@@H]5CC[C@H]4N5)ncc3C(F)(F)F)c[nH]c2c1` [Compound 137, (1S,2S,4R)—N-[4-[6-(3,5-dimethylisoxazol-4-yl)-1H-indol-3-yl]-5-(trifluoromethyl)pyrimidin-2-yl]-7-azabicyclo-[2.2.1]-heptan-3-amine], the IC50 was less than 100 nM in assay [1]; more than 500 nM in assay [2]; more than 500 nM in assay [3]; more than 500 nM in assay [4]; less than 100 nM in assay [5]; less than 100 nM in assay [6]. Moreover, the IC50 in assay [7] is 100 to 500 nM; in assay [8], less than 30 nM.
With `Cc1noc(C)c1-c1ccc2c(-c3nc(N[C@H]4C[C@H]5CC[C@@H]4N5)ncc3C(F)(F)F)c[nH]c2n1` [Compound 139], the IC50 in assay [1] was 100 to 500 nM; in assay [2], more than 500 nM; in assay [3] it was more than 500 nM; in assay [4], more than 500 nM; in assay [5], 100 to 500 nM; in assay [6] it was 100 to 500 nM. Further, the results for the IC50 in assay [7] and in assay [8] were 500 to 2000 nM and less than 30 nM, respectively.
Regarding `Cc1noc(C)c1-c1ccc2c(-c3nc(N[C@@H]4C[C@@H]5CC[C@H]4N5)ncc3C(F)(F)F)c[nH]c2n1` [Compound 140], the IC50 was less than 100 nM in assay [1]; more than 500 nM in assay [2]; more than 500 nM in assay [3]; more than 500 nM in assay [4]; less than 100 nM in assay [5]; less than 100 nM in assay [6]. Besides, the IC50 in assay [7] was less than 100 nM; in assay [8], less than 30 nM.
Take `Cc1noc(C)c1-c1ccc2c(-c3nc(N[C@H]4C[C@H]5CC[N@](CC5)C4)ncc3C(F)(F)F)c[nH]c2n1` [Compound 141, (3S)—N-[4-[6-(3,5-dimethylisoxazol-4-yl)-1H-pyrrolo[2,3-b]pyridin-3-yl]-5-(trifluoromethyl)pyrimidin-2-yl]-1-azabicyclo[3.2.2]nonan-3-amine]: the IC50 is less than 100 nM in assay [1]; more than 500 nM in assay [2]; more than 500 nM in assay [3]; more than 500 nM in assay [4]; less than 100 nM in assay [5]; less than 100 nM in assay [6]. Also, the IC50 in assay [7] is less than 100 nM; in assay [8], less than 30 nM.
As for `Cc1noc(C)c1-c1ccc2c(-c3nc(N[C@@H]4C[C@H]5CC[N@](CC5)C4)ncc3C(F)(F)F)cn(S(=O)(=O)c3ccccc3)c2n1` [Compound 142, (3R)—N-[4-[1-(benzenesulfonyl)-6-(3,5-dimethylisoxazol-4-yl)pyrrolo[2,3-b]pyridin-3-yl]-5-(trifluoromethyl)pyrimidin-2-yl]-1-azabicyclo[3.2.2]nonan-3-amine], the IC50 in assay [1] was 100 to 500 nM; in assay [2] it was more than 500 nM; in assay [3] it was more than 500 nM; in assay [4] it was more than 500 nM; in assay [5], 100 to 500 nM; in assay [6], 100 to 500 nM. Moreover, the figures for the IC50 in assay [7] and in assay [8] were 100 to 500 nM and less than 30 nM, respectively.
In the case of `Cc1noc(C)c1-c1ccc2c(-c3nc(N[C@H]4CCC[C@@H]4N4CCCC4)ncc3C(F)(F)F)c[nH]c2c1` [Compound 143, 4-[6-(3,5-dimethylisoxazol-4-yl)-1H-indol-3-yl]-N-[(1S,2S)-2-pyrrolidin-1-ylcyclopentyl]-5-(trifluoromethyl)pyrimidin-2-amine], the IC50 is less than 100 nM in assay [1]; more than 500 nM in assay [2]; more than 500 nM in assay [3]; more than 500 nM in assay [4]; less than 100 nM in assay [5]; 100 to 500 nM in assay [6]. Further, the figures for the IC50 in assay [7] and in assay [8] were 500 to 2000 nM and less than 30 nM, respectively.

(Values after US11918592B2, “Inhibitors of cyclin dependent kinase 7 (CDK7)” (Syros Pharmaceuticals, Inc., priority 2018, dated 2024).)
